The values that follow come from patent publication US9980973B2, “Bicyclic heterocycle compounds and their uses in therapy” (ASTEX THERAPEUTICS LIMITED, priority 2012, dated 2018).

Counter-ions that a name gives are not always drawn. Like-named read-outs stand apart in the source and are kept apart here.

The target of assay [1] is T1, BIR3 domain of human cIAP-1 (Homo sapiens, UniProt Q13490).
T1 construct: human cIAP-1 (residues 267-363) fused to a GST-tag; GST-tag (cleaved yes); made in house; host or cells: Escherichia coli
T1 sequence (Q13490 267-363): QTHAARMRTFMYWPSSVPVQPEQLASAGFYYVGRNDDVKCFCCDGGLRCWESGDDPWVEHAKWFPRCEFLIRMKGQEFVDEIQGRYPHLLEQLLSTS
Nature of the assay: cIAP-1 in vitro competitive displacement binding assay (fluorescence polarization). The conditions noted are these: PI at […]; 180 min; hydrochloride, […]. In general terms: In fluorescence polarisation assays a small probe gives low polarisation when free and higher when bound to something large.

Assay [2] has as its system EVSA-T (human breast carcinoma). Nature of the assay: Anti-proliferative activity, Alamar Blue assay, EVSA-T. It is filed as cell-based.
Assay [3] addresses T2, BIR3 domain of human XIAP (Homo sapiens, UniProt P98170).
T2 construct: BIR3 domain of human XIAP (residues 252-350) fused to a His-tag; His-tag (cleaved yes); made in house; host or cells: Escherichia coli
Nature of the assay: XIAP in vitro competitive displacement binding assay (fluorescence polarization). The conditions noted are these: for IC50: plain number = IC50, average where more than one data point, read-out: Xiap IC50 or PI μM (IC50); for inhibition at 0.04 µM: 1 h, PI at 0.04 μM, read-out: Xiap IC50 or PI μM (PI).

The mark [4] stands for this setting: EVSA-T cells, 72 hours, Alamar Blue, hydrochloride, read-out: EVSA-T prolif.
Setting [5] is: Homo sapiens, EVSA-T, 72 h, EVSA-T cells, 72 hours, Alamar Blue, read-out: EVSA-T prolif.
Setting [6] is: Homo sapiens, EVSA-T, read-out: EC50 in EVSA-T cell line assays.

T2 sequence (P98170 252-350): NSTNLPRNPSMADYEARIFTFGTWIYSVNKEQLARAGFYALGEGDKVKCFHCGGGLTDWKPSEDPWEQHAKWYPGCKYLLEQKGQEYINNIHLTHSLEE

Usually IC50 stands for the midpoint of a concentration-inhibition curve. Consider `C[C@@H]1CN(CC(=O)N2CC(C)(C)c3ncc(Cc4ccc(F)cc4)cc32)[C@@H](CN2CCOCC2C(F)(F)F)CN1` (single isomer, unassigned) [Example 27, 1-{6-[(4-Fluorophenyl)methyl]-3,3-dimethyl-1H,2H,3H-pyrrolo[3,2-b]pyridin-1-yl}-2-[(2R,5R)-5-methyl-2-{[3-([R or S]trifluoromethyl)morpholin-4-yl]methyl}piperazin-1-yl]ethan-1-one hydrochloride], for which, in assay [1], the “cIAP1 IC50 or PI μM (PI)” value is 90%@0.012. The EC50 in assay [2] (setting [4]) is 15 nM. Besides, the IC50 in assay [3] is 0.13 µM.

In the case of `CCCC(F)(F)c1cc2c(cn1)C(C)(C)CN2C(=O)CN1C[C@@H](C)NC[C@@H]1CN1CCOC[C@@]1(C)CO` (single isomer, unassigned) [Example 68, dihydrochloride], the EC50 in assay [2] (setting [5]) is 22 nM; in assay [2] (setting [6]), under 1000 nM. For the same compound, the inhibition at 0.04 µM in assay [3] was 69%.

For the compound `CC1N(C[C@H]2CN[C@H](C)CN2CC(=O)N2CC(C)(C)c3ncc(Cc4ccc(F)cc4)cc32)CCOC1(C)C` (stereo partly drawn) [Example 32, 1-{6-[(4-Fluorophenyl)methyl]-3,3-dimethyl-1H,2H,3H-pyrrolo[3,2-b]pyridin-1-yl}-2-[(2R,5R)-5-methyl-2-[(2,2,3-trimethylmorpholin-4-yl)methyl]piperazin-1-yl]ethan-1-one dihydrochloride], the EC50 in assay [2] (setting [5]) is 0.7 nM; in assay [2] (setting [6]), under 1000 nM. Moreover, the inhibition at 0.04 µM in assay [3] was found to be 42%.

With `CCCC(F)(F)c1cc2c(cn1)C(C)(C)CN2C(=O)CN1C[C@@H](C)NC[C@@H]1CN1CCOC[C@]1(C)CO` (single isomer, unassigned) [Example 69, dihydrochloride], the figures for the EC50 in assay [2] (setting [5]) and in assay [2] (setting [6]) were 5.6 nM and under 1000 nM, respectively. Moreover, in assay [3], the inhibition at 0.04 µM was determined as 71%.

As for `C[C@@H]1CN(CC(=O)N2CC(C)(C)c3ncc(Cc4ccc(F)cc4)cc32)[C@@H](CN2CCOCC2(C)C(=O)O)CN1` (stereo partly drawn) [Example 59, 4-{[(2R,5R)-1-(2-{6-[(4-Fluorophenyl)methyl]-3,3-dimethyl-1H,2H,3H-pyrrolo[3,2-b]pyridin-1-yl}-2-oxoethyl)-5-methylpiperazin-2-yl]methyl}-3-methylmorpholine-3-carboxylic acid, dihydrochloride], the EC50 in assay [2] (setting [5]) is 42 nM; in assay [2] (setting [6]), under 1000 nM. Further, the IC50 in assay [3] was determined as 0.34 µM.

In the case of `C[C@@H]1CN(CC(=O)N2CC(C)(C)c3ncc(Cc4ccc(F)cc4)cc32)[C@@H](CN2CC3CC2CO3)CN1` (stereo partly drawn) [Example 20, 1-{6-[(4-Fluorophenyl)methyl]-3,3-dimethyl-1H,2H,3H-pyrrolo[3,2-b]pyridin-1-yl}-2-[(2R,5R)-5-methyl-2-{2-oxa-5-azabicyclo[2.2.1]heptan-5-ylmethyl}piperazin-1-yl]ethan-1-one dihydrochloride], the EC50 was 2.8 nM in assay [2] (setting [5]) and under 1000 nM in assay [2] (setting [6]). For the same compound, in assay [3], the IC50 worked out at 0.14 µM.

On to `C[C@@H]1CN(CC(=O)N2CC(C)(C)c3ncc(Cc4ccc(F)cc4F)cc32)[C@@H](CN2CCOC[C@]2(C)CO)CN1` [Example 57, 1-{6-[(2,4-Difluorophenyl)methyl]-3,3-dimethyl-1H,2H,3H-pyrrolo[3,2-b]pyridin-1-yl}-2-[(2R,5R)-2-{[(3S)-3-(hydroxymethyl)-3-methylmorpholin-4-yl]methyl}-5-methylpiperazin-1-yl]ethan-1-one, dihydrochloride], for which the EC50 in assay [2] (setting [5]) was 2.6 nM; in assay [2] (setting [6]), under 1000 nM. Moreover, the inhibition at 0.04 µM in assay [3] is 41%.

Consider `C[C@@H]1CN(CC(=O)N2CC(C)(C)c3ncc(Cc4ccc(F)cc4)cc32)[C@@H](CN2CCCC(F)(F)C2)CN1` [Example 3, 2-[(2R,5R)-2-[(3,3-Difluoropiperidin-1-yl)methyl]-5-methylpiperazin-1-yl]-1-{6-[(4-fluorophenyl)methyl]-3,3-dimethyl-1H,2H,3H-pyrrolo[3,2-b]pyridin-1-yl}ethan-1-one dihydrochloride], for which the EC50 in assay [2] (setting [5]) was 6.8 nM; in assay [2] (setting [6]) it was under 1000 nM. Moreover, the inhibition at 0.04 µM in assay [3] came to 37%.

Turning to `C[C@@H]1CN(CC(=O)N2CC(C)(C)c3ncc(Cc4ccc(F)cc4)cc32)[C@@H](CN2CCOCC2C(F)(F)F)CN1` (single isomer, unassigned) [Example 25, 1-{6-[(4-Fluorophenyl)methyl]-3,3-dimethyl-1H,2H,3H-pyrrolo[3,2-b]pyridin-1-yl}-2-[(2R,5R)-5-methyl-2-{[3-([R or S]trifluoromethyl)morpholin-4-yl]methyl}piperazin-1-yl]ethan-1-one hydrochloride], the EC50 was 1.2 nM in assay [2] (setting [4]) and under 1000 nM in assay [2] (setting [6]). In assay [3], the IC50 turned out to be 0.12 µM.

For `C[C@@H]1CN(CC(=O)N2CC(C)(C)c3cnc(Cc4ccc(F)cc4F)cc32)[C@@H](CN2CCOC[C@@]2(C)CO)CN1` (single isomer, unassigned) [Example 67, dihydrochloride], the EC50 in assay [2] (setting [5]) is 3.7 nM; in assay [2] (setting [6]), under 1000 nM. In assay [3], the inhibition at 0.04 µM worked out at 65%.

Turning to `C[C@@H]1CN(CC(=O)N2CC(C)(C)c3cc(C#N)c(Cc4ccc(F)cc4)cc32)[C@@H](CN2[C@H](C)COC[C@H]2C)CN1` [Example 92, 1-{2-[(2R,5R)-2-{[(3R,5R)-3,5-Dimethylmorpholin-4-yl]methyl}-5-methylpiperazin-1-yl]acetyl}-6-[(4-fluroophenyl)methyl]-3,3-dimethyl-2,3-dihydro-1H-indole-5-carbonitrile dihydrochloride], the EC50 in assay [2] (setting [5]) is 2.7 nM; in assay [2] (setting [6]), under 1000 nM. In addition, the inhibition at 0.04 µM in assay [3] came to 54%.

Turning to `CCCC(F)(F)c1cc2c(cn1)C(C)(C)CN2C(=O)CN1C[C@@H](C)NC[C@@H]1CN1CCN(C(C)=O)C[C@H]1C` [Example 60, 2-[(2R,5R)-2-{[(2R)-4-Acetyl-2-methylpiperazin-1-yl]methyl}-5-methylpiperazin-1-yl]-1-[6-(1,1-difluorobutyl)-3,3-dimethyl-1H,2H,3H-pyrrolo[3,2-c]pyridin-1-yl]ethan-1-one, dihydrochloride], the EC50 in assay [2] (setting [5]) was 6.7 nM; in assay [2] (setting [6]) it was under 1000 nM. Also, the inhibition at 0.04 µM in assay [3] came out at 74%.

As for `C[C@@H]1CN(CC(=O)N2CC(C)(C)c3ncc(Cc4ccc(F)cc4)cc32)[C@@H](CN2CCOC[C@@]2(C)CO)CN1` [Example 51, 1-{6-[(4-Fluorophenyl)methyl]-3,3-dimethyl-1H,2H,3H-pyrrolo[3,2-b]pyridin-1-yl}-2-[(2R,5R)-2-{[(3R)-3-(hydroxymethyl)-3-methylmorpholin-4-yl]methyl}-5-methylpiperazin-1-yl]ethan-1-one, dihydrochloride], the EC50 in assay [2] (setting [5]) is 2.2 nM; in assay [2] (setting [6]), under 1000 nM. Besides, the inhibition at 0.04 µM in assay [3] is 44%.

On to `C[C@@H]1CN(CC(=O)N2CC(C)(C)c3ncc(Cc4ccc(F)cc4)cc32)[C@@H](CN2C[C@@H]3C[C@H]2CO3)CN1` [Example 7, 1-{6-[(4-Fluorophenyl)methyl]-3,3-dimethyl-1H,2H,3H-pyrrolo[3,2-b]pyridin-1-yl}-2-[(2R,5R)-5-methyl-2-[(1S,4S)-2-oxa-5-azabicyclo[2.2.1]heptan-5-ylmethyl]piperazin-1-yl]ethan-1-one dihydrochloride], for which the results for the EC50 in assay [2] (setting [5]) and in assay [2] (setting [6]) were 6.2 nM and under 1000 nM, respectively. Further, the IC50 in assay [3] came out at 0.16 µM.

As to `C[C@@H]1CN(CC(=O)N2CC(C)(C)c3ncc(Cc4ccc(F)cc4F)cc32)[C@@H](CN2[C@H](C)COC[C@H]2C)CN1` [Example 54, 1-{6-[(2,4-Difluorophenyl)methyl]-3,3-dimethyl-1H,2H,3H-pyrrolo[3,2-b]pyridin-1-yl}-2-[(2R,5R)-2-{[(3R,5R)-3,5-dimethylmorpholin-4-yl]methyl}-5-methylpiperazin-1-yl]ethan-1-one, dihydrochloride], the EC50 in assay [2] (setting [6]) was under 1000 nM. Moreover, in assay [2] (at 0.001 μM), the “EVSA-T prolif (% at concentration)” value was 96% at. Further, the inhibition at 0.04 µM in assay [3] stood at 59%.

Turning to `CCCC(O)c1cnc2c(c1)N(C(=O)CN1C[C@@H](C)NC[C@@H]1CN1[C@H](C)COC[C@H]1C)CC2(C)C` (single isomer, unassigned) [Example 101, 2-[(2R,5R)-2-{[(3R,5R)-3,5-Dimethylmorpholin-4-yl]methyl}-5-methylpiperazin-1-yl]-1-[6-(1-(R or S)-hydroxybutyl)-3,3-dimethyl-1H,2H,3H-pyrrolo[3,2-b]pyridin-1-yl]ethan-1-one dihydrochloride], the EC50 is 31 nM in assay [2] (setting [5]) and under 1000 nM in assay [2] (setting [6]). Also, in assay [3], the inhibition at 0.04 µM was 47%.

As to `C[C@@H]1CN(CC(=O)N2CC(C)(C)c3cnc(Cc4ccc(F)cc4)cc32)[C@@H](CN2CCOC[C@@]2(C)CO)CN1` [Example 62, 1-{6-[(4-Fluorophenyl)methyl]-3,3-dimethyl-1H,2H,3H-pyrrolo[3,2-c]pyridin-1-yl}-2-[(2R,5R)-2-{[(3R)-3-(hydroxymethyl)-3-methylmorpholin-4-yl]methyl}-5-methylpiperazin-1-yl]ethan-1-one, dihydrochloride], the results for the EC50 in assay [2] (setting [5]) and in assay [2] (setting [6]) were 1.1 nM and under 1000 nM, respectively. Further, the inhibition at 0.04 µM in assay [3] was 60%.

As to `C[C@@H]1CN(CC(=O)N2CC(C)(C)c3ncc(Cc4ccccc4)cc32)[C@@H](CN2[C@H](C)COC[C@H]2C)CN1` [Example 29, 1-{6-Benzyl-3,3-dimethyl-1H,2H,3H-pyrrolo[3,2-b]pyridin-1-yl}-2-[(2R,5R)-2-{[(3R,5R)-3,5-dimethylmorpholin-4-yl]methyl}-5-methylpiperazin-1-yl]ethan-1-one dihydrochloride], the EC50 is 0.4 nM in assay [2] (setting [5]) and under 1000 nM in assay [2] (setting [6]). Further, in assay [3], the inhibition at 0.04 µM amounted to 47%.
